Experimental data reported in patent publication US8821568B2, “Implant modified with non-hydroxylated vitamin D precursors” (Numat Biomedical S.L., priority 2008, dated 2014).
Entries after “also recorded” stand apart in the source; their conditions may differ.

Tests used:
[1] = system: MC3T3-E1 cells; assay: Real-time RT-PCR of vitamin D hydroxylation/degradation enzymes (CYP27A1, CYP27B1, CYP24A1), plastic wells; type: cell-based, mouse; conditions: TCP, 2 days
Experimental: To test the effect of the different treatments onto the plastic wells, 96-well plates made of polystyrene were used and the treatments with 7-DHC performed directly onto them. Cells grown onto untreated TCP were added as a control for all the experiments. Cells were seeded at a density of 30,000 cells/cm^2 and they were maintained in α-MEM supplemented with 10% FCS and antibiotics. Culture media was collected after 48 hours, to test cytotoxicity and the production of the hydroxylated forms of vitamin D. Cells were harvested after 2 days of culture using Trizol reagent (Roche Diagnostics, Mannheim, Germany), to analyse early gene expression response of several osteoblast differentiation markers and enzymes involved in vitamin D synthesis using real-time RT-PCR.
(§1) RNA was isolated from cells using a monophasic solution of phenol and guanidine thiocyanate (Trizol, Roche Diagnostics, Mannheim, Germany) according to the manufacturer's protocol. RNA was quantified at 260 nm using a Nanodrop spectrophotometer (NanoDrop Technologies, Wilmington, Del., USA).
(§2) Total RNA previously isolated was reverse-transcribed to cDNA using High Capacity RNA to cDNA kit (Applied Biosystems, Foster City, Calif.) according to the protocol of the supplier. The same amount of total RNA from each sample was converted into cDNA. Each cDNA was diluted ¼ and aliquots were stored at −20° C. until the PCR reactions were carried out.
Real-time RT-PCR was performed for two reference genes: 18S ribosomal RNA (18S rRNA), glyceraldehyde-3-phosphate dehydrogenase (GAPDH), and 11 target genes alkaline phospathase (ALP), Interleukin 6 (IL-6), Collagen (Coll-1), Osteocalcin (OC), Bone Morphogenetic Protein 2 (BMP-2), Osterix (Osx), Receptor activator of nuclear factor kappa-B ligand (RANKL), Osteoprogesterin (OPG) and genes involved in vitamin D synthesis such as Vitamin D3 25-hydroxylase (CYP27A1), 25 hydroxyvitamin D3-1-alpha hydroxylase (CYP27B1) and 1,25-dihydroxyvitamin D3 24-hydroxylase (CYP24A1).
Real-time PCR were performed in the Lightcycler 480® (Roche Diagnostics, Germany). […] After each cycle, fluorescence was measured at 72° C. […]
To allow relative quantification after PCR, real-time efficiencies were calculated from the given slopes in the LightCycler 480 software (Roche Diagnostics, Mannheim, Germany) using serial dilutions. Relative quantification after PCR was calculated by normalizing target gene concentration in each sample by the concentration mean of the two reference genes in given sample using the “advanced relative quantification method” provided by the LightCycler 480 analysis software.

[2] = system: MC3T3-E1 cells; assay: Real-time RT-PCR of osteoblast differentiation markers, coated titanium implants; type: cell-based, mouse; conditions: Ti implants, 48 h
Experimental: To test the effect of the surface modification, 96-well plates were used. Ti disks were placed into the wells and treatments and UV-activation were performed over there. Cells grown onto untreated polystyrene tissue culture plastic (TCP) were added as a control for all the experiments. Cells were seeded at a density of 30,000 cells/cm^2 and they were maintained in α-MEM supplemented with 10% FCS and antibiotics. Culture media was collected after 48 hours, to test cytotoxicity and the production of the hydroxylated form of vitamin D, 25-D3. Cells were harvested after two days of culture using Trizol reagent (Roche Diagnostics, Mannheim, Germany), to analyze gene expression of several osteoblast differentiation markers and enzymes involved in vitamin D synthesis using real-time RT-PCR. On the other hand, MC3T3-E1 cells were harvested after 21 days to measure calcium content and ALP activity in the cell monolayer.
as §1, §2
Real-time RT-PCR was performed for two reference genes: 18S ribosomal RNA (18S rRNA), glyceraldehyde-3-phosphate dehydrogenase (GAPDH); and eleven target genes: alkaline phosphathase (ALP), Interleukin 6 (IL-6), Collagen (Coll-1), Osteocalcin (OC), Bone Morphogenetic Protein 2 (BMP-2), Osterix (Osx), Receptor activator of nuclear factor kappa-B ligand (RANKL), Osteoprogesterin (OPG) and genes involved in vitamin D synthesis such as Vitamin D3 25-hydroxylase (CYP27A1) and 25 hydroxyvitamin D3-1-alpha hydroxylase (CYP27B1). Real-time PCR were performed in the Lightcycler 480® (Roche Diagnostics, Germany). Each reaction contained 5 μl of LightCycler-FastStart DNA Master^PLUS SYBR Green I (Roche Diagnostics, Mannheim, Germany), 0.5 μM of the sense and antisense specific primers (Table 1) and 3 μl of the cDNA dilution in a final volume of 10 μl. The normal amplification program consisted of a preincubation step for denaturation of the template cDNA (10 min 95° C.), followed by 45 cycles consisting of a denaturation step (10 s 95° C.), an annealing step (10 s 60° C., except for ALP that was 10 s at 65° C., OSX with 10 s at 68° C.) and an extension step (10 s 72° C.). After each cycle, fluorescence was measured at 72° C. Every run included a negative control without cDNA template. To confirm amplification specificity, PCR products were subjected to a melting curve analysis on the LightCycler and subsequently 2% agarose/TAE gel electrophoresis, Tm and amplicon size, respectively.
To allow relative quantification after PCR, real-time efficiencies were calculated from the given slopes in the LightCycler 480 software (Roche Diagnostics, Mannheim, Germany) using serial dilutions. Relative quantification after PCR was calculated by normalizing target gene concentration in each sample by the concentration mean of the two reference genes in given sample using the Advanced relative quantification method provided by the LightCycler 480 analysis software.

Structure (SMILES): CC(C)CCC[C@@H](C)[C@H]1CC[C@H]2C3=CC=C4C[C@@H](O)CC[C@]4(C)[C@H]3CC[C@]12C [7-DHC, 7-dehydrocholesterol]
- CYP27B1 mRNA levels ([1]; UV-irradiated, higher concentrated samples, significance was not reached): increase in mRNA levels
- CYP27A1 mRNA levels ([1]; UV-treated doses above the lowest, vs UV-untreated corresponding doses): dose-response increase
- RANKL mRNA expression ([2]; 2×10^−2 nmols and 0.2 nmols, UV 15 minutes vs UV-untreated): significant decrease
- RANKL mRNA levels ([2]; 10 minutes UV-exposed, compared to ethanol): statistical significant increase
- OPG mRNA levels ([2]; 30 min UV-exposed): decrease
- RANKL mRNA levels ([2]; 30 minutes UV-exposed): significant decrease
- ALP mRNA levels ([2]; UV irradiated vs ethanol and UV-treated groups, significant at 30 minutes): higher ALP mRNA levels
- OC mRNA levels ([2]; UV-exposed for 15 min): tendency to increased OC mRNA levels
- RANKL gene expression ([2]; all UV-treated groups (2×10^−2, 0.2, 2 nmols; 15 minutes) compared to control): Statistical significances; also recorded: significantly reduced
- OSX mRNA levels ([2]; between all the groups, only significant at 10 minutes of UV exposure): very similar
- BMP-2 mRNA levels ([2]; when exposed to UV): No statistical differences
- IL-6 mRNA levels ([2]; when exposed to UV): No statistical differences
- Collagen type-1 gene expression ([2]; with UV exposure time, significant at 15 and 30 minutes): trend to decrease
